Experimental data: publication PMC7504725, “Automated Synthesis of Fluorine-18 Labeled CXCR4 Ligand via the Conjugation with Nicotinic Acid N-Hydroxysuccinimide Ester (6-[^18F]SFPy)” (Molecules, 2020)
Where two headings read alike, the source gives them in different places.

How the values were obtained:
[1] = test system: CXCR4 positive tumors; settings: PET, xenograft mouse model, RBC binding blocked with non-radioactive 4-FBz-T140, ref [31]; cited from earlier work
Description: (§1) However, due to the complex and time-consuming radiolabeling procedure, they developed another analog, (Al[^18F]NOTA-T140), using the Al-F me ...

[2] = test system: red blood cells (RBCs); settings: blocked by non-radioactive standard 4-FBz-T140 peptide; ref [31]; cited from earlier work
Description: as §1

[3] = test system: CXCR4; set-up: method as in earlier work; settings: previously reported, ref [24],[31],[48],[49],[50],[51] (collective), cited from earlier work
[4] = test system: HIV; settings: 4-fluorobenzoyl group introduced on T140-based pharmacophore; ref [30]; cited from earlier work
Description: Numerous truncated peptide analogs that mimic the function of CXCL12 have been reported. Tamamura et al. described the synthesis of novel 14-amino acid peptide inhibitors (T134, T140) based on the structure of their previously reported 18-amino acid peptide, T22, for inhibitory activity against HIV-1 entry. […] However, due to the complex and time-consuming radiolabeling procedure, they developed another analog, (Al[^18F]NOTA-T140), using the Al-F me ...

[5] = Hydrolysis of 6-[^18F]SFPy to 6-[^18F]fluoronicotinic acid (HPLC); format: physicochemical; settings: room temperature, 4h post radiolabeling; HPLC method B (Vydac C-4), radio detector
Procedure: Figure 2 HPLC analysis (method B) of 6-[^18F]SFPy (A) Crude reaction mixture; (B) Crude reaction mixture co-injected with the non-radioactive standard; (C) Pure; (D) Pure co-injected with the non-radioactive standard; (E) After 4h of labeling at room temperature co-injected with the non-radioactive standard, 6-fluoronicotinic acid. Solid line, in-line radio detector; dotted line, UV detector at 254 nm. Retention time (min): 6-[^18F]SFPy, 4.0; compound 4, 4.1; 6-[^18F]fluoronicotinic acid, 2.8.
Method B (HPLC conditions for analysis): Vydac C-4 (2) column (4.6 × 150 mm, 5 µ), mobile phase: 15–22% B in 10 min; B = acetonitrile (0.1% TFA), A = Water (0.1% TFA), flow rate of 1 mL/min; tR = ~8 min.

## 4-[^18F]fluorobenzoyl-TN14003 [4-[^18F]FBz-T140]
[1]
  tumor-to-background ratios (in words): high tumor-to-background ratios
[2]
  binding to red blood cells (in words): elevated binding

## 4-fluorobenzoyl-TN14003 [4-FBz-T140]
[3]; first of two values printed for this analog
  IC50: 0.99 nM
[3]; second of two values printed for this analog
  IC50: 1.75 nM
[4]
  anti-HIV activity (in words): enhancement of anti-HIV activity

## O=C(ON1C(=O)CCC1=O)c1ccc([18F])nc1 [6-[^18F]SFPy]
[5]
  conversion to 6-[^18F]fluoronicotinic acid (slow hydrolysis): 15%
